For one experiment, the target named is T1, wt12-LOX (Homo sapiens, UniProt P18054).
T1 construct: 6xHis (N); made in house; insert in pFastBac1 shuttle vector (baculovirus system, own inference)
T1 sequence (P18054 1-663): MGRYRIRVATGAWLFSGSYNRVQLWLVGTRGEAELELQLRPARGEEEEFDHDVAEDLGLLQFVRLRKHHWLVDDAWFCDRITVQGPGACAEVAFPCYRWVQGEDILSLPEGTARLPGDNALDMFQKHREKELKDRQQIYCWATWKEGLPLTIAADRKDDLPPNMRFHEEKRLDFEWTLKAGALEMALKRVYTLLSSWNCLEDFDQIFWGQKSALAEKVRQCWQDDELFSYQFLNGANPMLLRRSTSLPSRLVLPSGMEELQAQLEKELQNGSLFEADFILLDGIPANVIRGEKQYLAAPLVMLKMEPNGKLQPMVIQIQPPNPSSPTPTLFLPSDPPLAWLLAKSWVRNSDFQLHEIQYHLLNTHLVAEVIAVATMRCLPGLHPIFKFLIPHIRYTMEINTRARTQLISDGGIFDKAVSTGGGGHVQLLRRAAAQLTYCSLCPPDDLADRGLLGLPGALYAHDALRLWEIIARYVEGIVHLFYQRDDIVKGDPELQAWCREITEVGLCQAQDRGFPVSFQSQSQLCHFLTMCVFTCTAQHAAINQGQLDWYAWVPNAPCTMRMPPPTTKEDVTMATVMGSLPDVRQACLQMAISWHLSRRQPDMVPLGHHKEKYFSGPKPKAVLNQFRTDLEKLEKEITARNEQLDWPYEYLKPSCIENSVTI
The experiment in a line: UV-Vis-based IC50 assay, wild type 12-LOX. Type of experiment: biochemical. The method, then:
The wild type 12-LOX (wt-12-LOX) enzyme and its mutants were expressed as fusion proteins, with an N-terminal 6×His tag, and were affinity purified by nickel-iminodiacetic acid agarose using FPLC (Biorad).
The percent inhibition was determined by comparing the enzyme rates of the control (DMSO solvent) and the inhibitor sample by following the formation of the conjugated diene product at 234 nm (ε=25,000 M^−1cm^−1). The reactions were initiated by adding 200 nM 15-LOX-2, 30 nM 12-LOX, 40 nM 15-LOX-1, or approximately 100-300 nM (total protein) of 5-LOX ammonium sulfate fraction to a cuvette with 2 mL reaction buffer, constantly stirred using a magnetic stir bar at room temperature (22° C.). Reaction buffers used for various LOX isozymes were as follows: 25 mM HEPES (pH 7.3), 0.3 mM CaCl2), 0.1 mM EDTA, 0.2 mM ATP, 0.01% Triton X-100, 10 μM AA for the crude, ammonium sulfate precipitated 5-LOX; and 25 mM HEPES (pH 7.5), 0.01% Triton X-100, 10 μM AA for 15-LOX-2, 15-LOX-1, and 12-LOX. The substrate concentration was quantitatively determined by allowing the enzymatic reaction to go to completion in the presence of soybean LOX-1. IC50 values were obtained by determining the % inhibition, relative to solvent vehicle only, at various inhibitor concentrations. […]

The test system of the next experiment is human islets. The experiment in a line: Glucose stimulated insulin secretion (GSIS) of human islets treated with PIC. Type of experiment: cell-based. On the procedure: Human islets from nondiabetic donors were received from the Integrated Islet Distribution Program or Prodo Laboratories (Aliso Viejo, CA) (Table 1). Characteristics of islets and donors are summarized in the below table. Islets were incubated in CMRL-1066 medium supplemented with 10% fetal bovine serum and 1% Pen-Strept overnight at 37° C. in 5% CO2 for recovery from shipment. On the next day, islets were transferred to CMRL-1066 supplemented with 5% fetal bovine serum and 1% Pen-Strept. A portion of the islets were randomly selected and incubated with a mixture of human PICs, […] tumor necrosis factor α, […] interferon-γ, and […] IL-1β (all from BD Biosciences, San Jose, CA) in the presence or absence of 1 μmol/L compound LOX-12-001. Compound LOX-12-001 was added 30 minutes before the addition of pro-inflammatory cytokines (PIC).
Use of Krebs-Ringer buffer (KRB) for glucose-stimulated insulin secretion (GSIS) was previously published. For batch assays, islets treated with PIC in the presence or absence of compound LOX-12-001 (1 μM) for 24 hours were transferred to KRB without glucose and were incubated for 1 hour at 37° C. in 5% CO2 in the absence of PIC and compound LOX-12-001. Thereafter, 50 islet equivalents (IEQs) per well were transferred to six-well plates filled with 1 mL of KRB containing 3 mmol/L or 18 mmol/L of glucose and were incubated for 1 hour at 37° C. in 5% CO2. Each condition was performed in triplicate. After incubation, supernatant was collected for determination of insulin secretion by human insulin enzyme-linked immunosorbent assay (Mercodia, Winston-Salem, NC).
Data are presented as mean±standard error of the mean and were analyzed using Two-way Annova analysis of variance Sidak's multiple comparison test (Prism software, Irvine, CA) as indicated in each figure. P<0.05 was considered significant.

The values that follow come from patent US20240279190A1, “COMPOUNDS FOR MODULATING PLATELET-TYPE 12-(S)-LIPOXYGENASE AND METHODS OF USE FOR SAME” (The Regents of The University of California, priority 2021, published 2024).

A word on the IC50: it is the concentration that inhibits the measured activity by half. Low values mean higher potency, high ones lower potency. For the compound `COc1cccc(CNc2ccc(S(=O)(=O)Nc3nc4c(ccc5ccccc54)s3)cc2)c1O` [Compound LOX-12-001, 4-((2-hydroxy-3-methoxybenzyl)amino)-N-(naphtho[1,2-d]thiazol-2-yl)benzenesulfonamide], the “fold increase in potency relative to ML355” value at wt12-LOX (against wt12-LOX) turned out to be 7.2 fold. Besides, 50 ± 20 nM corresponded to half-maximal inhibition against wt12-LOX (wt12-LOX, 10 μM AA, 25 mM HEPES pH 7.5, 22° C.) (IC50). Besides, the insulin secretion is given as 140+/−3 mU/L with human islets (3 mmol/L glucose, PIC plus 1 μM compound for 24 hrs); 25+/−5 mU/L in the experiment on human islets (3 mmol/L glucose, compound only (1 μM), no PIC); 352+/−10 mU/L in the experiment on human islets (18 mmol/L glucose, PIC plus 1 μM compound for 24 hrs); 128+/−13 mU/L in the experiment on human islets (18 mmol/L glucose, compound only (1 μM), no PIC).
